Assay results from ChEMBL document CHEMBL1201862, “PubChem BioAssay data set” (2004).
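Protocol summary: plate cells (96-well), add compound at 5 concentrations, incubate 48 h, interpolate endpoints linearly. Abbreviation: GI50, concentration required for 50% inhibition of growth.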 Activity calls are given as the source filed them. Cut-off read from the data, not from the text of the source: active = GI50 up to about 1.1 µM and inactive = higher.

Tests used:
Experiment in all cases: inhibition of tumour cell growth, NCI panel, 48 h
A549 = test system: A549
ACHN = test system: ACHN
DMS-114 = test system: DMS-114
HCC 2998 = test system: HCC 2998
HCT-116 = test system: HCT-116
LOX IMVI = test system: LOX IMVI
Malme-3M = test system: Malme-3M
NCI-H522 = test system: NCI-H522
SN12C = test system: SN12C
SNB-19 = test system: SNB-19
SW-620 = test system: SW-620
U-251 = test system: U-251
UACC-257 = test system: UACC-257
SK-OV-3 = test system: SK-OV-3
SR = test system: SR
CAKI-1 = test system: CAKI-1
BT-549 = test system: BT-549
DU-145 = test system: DU-145
MDA-MB-435 = test system: MDA-MB-435
NCI/ADR-RES = test system: NCI/ADR-RES

Measured: GI50

C=CCC1(CN(C)C)CC/C(=C\c2ccc(OC)cc2)C1=O (stereo not given)
inactive: A549 > 100 µM | ACHN > 100 µM | DMS-114 37.7 µM | HCC 2998 38.7 µM | HCT-116 61.5 µM | LOX IMVI > 100 µM | Malme-3M 79.3 µM | NCI-H522 25.8 µM | SN12C > 100 µM | SNB-19 > 100 µM | SW-620 30.9 µM | U-251 89.5 µM | UACC-257 38 µM

Cc1ccccc1C(=O)Oc1ccc(OCc2ccccc2)cc1
inactive: A549 35.2 µM | ACHN 9.18 µM | DMS-114 28.9 µM | HCC 2998 35.9 µM | HCT-116 53.5 µM | LOX IMVI 99.1 µM | Malme-3M > 100 µM | SK-OV-3 > 100 µM | SN12C 93.8 µM | SNB-19 > 100 µM | SR 19.1 µM | SW-620 > 100 µM | U-251 > 100 µM | UACC-257 95.7 µM

CCC(=O)CCC1=Nc2nnc(CCCCc3nnc4n3C(=O)C(CCC(=O)CC)=N4)n2C1=O
inactive: A549 > 100 µM | ACHN > 100 µM | CAKI-1 > 100 µM | DMS-114 > 100 µM | HCC 2998 > 100 µM | LOX IMVI > 100 µM | Malme-3M > 100 µM | NCI-H522 > 100 µM | SK-OV-3 > 100 µM | SN12C > 100 µM | SNB-19 > 100 µM | SW-620 > 100 µM | UACC-257 > 100 µM

Oc1ccccc1/C=N/Cc1ccco1
inactive: A549 > 100 µM | ACHN > 100 µM | DMS-114 > 100 µM | HCT-116 > 100 µM | LOX IMVI > 100 µM | Malme-3M > 100 µM | SK-OV-3 > 100 µM | SN12C > 100 µM | SNB-19 > 100 µM | SR > 100 µM | SW-620 > 100 µM | U-251 > 100 µM | UACC-257 > 100 µM

O=C(CC/C(CC(=O)c1ccc(Cl)cc1)=N/O)Nc1ccc(Cl)c(Cl)c1
inactive: A549 > 100 µM | ACHN 31.8 µM | CAKI-1 86.1 µM | DMS-114 65.3 µM | HCT-116 > 100 µM | Malme-3M > 100 µM | NCI-H522 82.6 µM | SK-OV-3 > 100 µM | SN12C > 100 µM | SNB-19 > 100 µM | SR 89.5 µM | SW-620 > 100 µM | U-251 > 100 µM | UACC-257 > 100 µM

NC(=O)C12CC3CC(CC(F)(C3)C1)C2
inactive: A549 > 100 µM | ACHN > 100 µM | DMS-114 > 100 µM | HCC 2998 > 100 µM | HCT-116 > 100 µM | LOX IMVI > 100 µM | Malme-3M > 100 µM | NCI-H522 > 100 µM | SK-OV-3 > 100 µM | SW-620 > 100 µM | U-251 > 100 µM | UACC-257 > 100 µM

O=C1C2=C(c3ccccc31)C(c1ccccc1Cl)N1C(=O)CSC1=N2 (stereo not given)
inactive: A549 > 100 µM | ACHN > 100 µM | CAKI-1 > 100 µM | DMS-114 53.8 µM | HCC 2998 > 100 µM | HCT-116 87.3 µM | LOX IMVI > 100 µM | Malme-3M > 100 µM | NCI-H522 23.8 µM | SK-OV-3 > 100 µM | SN12C > 100 µM | SNB-19 > 100 µM | SW-620 > 100 µM | U-251 > 100 µM | UACC-257 > 100 µM

CC(=O)OCC1OC(n2c(=S)n(-c3ccccc3)c(=O)c3cc(Br)ccc32)C(OC(C)=O)C1OC(C)=O (stereo not given)
inactive: A549 > 100 µM | ACHN > 100 µM | CAKI-1 11.6 µM | DMS-114 99.8 µM | HCC 2998 > 100 µM | HCT-116 > 100 µM | LOX IMVI > 100 µM | Malme-3M > 100 µM | NCI-H522 > 100 µM | SK-OV-3 > 100 µM | SN12C > 100 µM | SNB-19 > 100 µM | SW-620 > 100 µM | U-251 > 100 µM | UACC-257 > 100 µM

Cc1nc2c(sc(=S)n2-c2ccccc2)c2nc3ccccc3n12
inactive: ACHN > 100 µM | CAKI-1 > 100 µM | DMS-114 > 100 µM | HCC 2998 > 100 µM | LOX IMVI > 100 µM | Malme-3M > 100 µM | NCI-H522 > 100 µM | SK-OV-3 > 100 µM | SN12C > 100 µM | SNB-19 > 100 µM | U-251 > 100 µM | UACC-257 > 100 µM

[O-][S+]1[C@H](c2ccccc2)c2c(-c3ccccc3)sc(-c3ccccc3)c2[C@@H]1c1ccccc1 (stereo not given in full)
inactive: A549 10.8 µM | ACHN 5.89 µM | CAKI-1 15.2 µM | DMS-114 10.2 µM | HCC 2998 > 100 µM | LOX IMVI 94.8 µM | Malme-3M 23.4 µM | NCI-H522 3.23 µM | SK-OV-3 > 100 µM | SN12C 25.3 µM | SNB-19 77.1 µM | SW-620 13.2 µM | U-251 9.44 µM | UACC-257 > 100 µM

CC(=O)NC1C(O)C(O)C(CO)OC1n1nc(SCc2ccccc2)c(=O)[nH]c1=O (stereo not given)
inactive: A549 > 100 µM | ACHN > 100 µM | BT-549 > 100 µM | CAKI-1 > 100 µM | DU-145 > 100 µM | HCC 2998 > 100 µM | HCT-116 > 100 µM | LOX IMVI > 100 µM | MDA-MB-435 > 100 µM | Malme-3M > 100 µM | NCI-H522 > 100 µM | NCI/ADR-RES > 100 µM | SK-OV-3 > 100 µM | SN12C > 100 µM | SNB-19 > 100 µM | SR > 100 µM | SW-620 > 100 µM | U-251 > 100 µM | UACC-257 > 100 µM

CC(=O)n1[nH]c(=O)n(-c2ccc(Cl)cc2)c1=O
inactive: A549 > 100 µM | ACHN > 100 µM | BT-549 > 100 µM | CAKI-1 > 100 µM | DU-145 > 100 µM | HCC 2998 > 100 µM | HCT-116 > 100 µM | LOX IMVI > 100 µM | MDA-MB-435 > 100 µM | Malme-3M 45.9 µM | NCI-H522 > 100 µM | NCI/ADR-RES > 100 µM | SK-OV-3 > 100 µM | SN12C > 100 µM | SNB-19 > 100 µM | SR > 100 µM | SW-620 > 100 µM | U-251 > 100 µM | UACC-257 > 100 µM

Cc1ccc(NC(=O)c2cccc(OP(=O)(Nc3ccc(C)cc3)Nc3ccc(C)cc3)c2)cc1
inactive: A549 3.46 µM | ACHN 4 µM | BT-549 22.2 µM | CAKI-1 12.8 µM | DU-145 53.3 µM | HCC 2998 5.21 µM | HCT-116 4.18 µM | LOX IMVI 10.9 µM | MDA-MB-435 7.48 µM | Malme-3M 4.83 µM | NCI-H522 2.78 µM | NCI/ADR-RES 12 µM | SK-OV-3 24.9 µM | SN12C 16.3 µM | SNB-19 35.1 µM | SR 3.4 µM | SW-620 8.18 µM | U-251 6.58 µM | UACC-257 11.9 µM

COc1cccc2[nH]c(-c3ccccn3)nc12
inactive: A549 > 100 µM | ACHN 56.2 µM | BT-549 > 100 µM | CAKI-1 77.6 µM | DU-145 > 100 µM | HCC 2998 > 100 µM | HCT-116 > 100 µM | LOX IMVI > 100 µM | MDA-MB-435 > 100 µM | Malme-3M > 100 µM | NCI-H522 48.9 µM | NCI/ADR-RES 14.3 µM | SK-OV-3 > 100 µM | SN12C > 100 µM | SNB-19 > 100 µM | SR > 100 µM | SW-620 > 100 µM | U-251 > 100 µM | UACC-257 > 100 µM

O=C1/C(=C\c2cccc(Oc3ccccc3)c2)SC(c2ccccc2)N1c1ccccc1 (stereo not given)
inactive: A549 > 100 µM | ACHN > 100 µM | BT-549 > 100 µM | CAKI-1 > 100 µM | DU-145 > 100 µM | HCC 2998 > 100 µM | HCT-116 20.1 µM | LOX IMVI 31.9 µM | MDA-MB-435 33.7 µM | Malme-3M > 100 µM | NCI-H522 17.1 µM | NCI/ADR-RES 75.3 µM | SK-OV-3 > 100 µM | SN12C > 100 µM | SNB-19 58.1 µM | SR 11.9 µM | SW-620 12.4 µM | U-251 25.1 µM | UACC-257 52.1 µM

O=C(O)CCN(CCCCN(CCC(=O)O)CCC(=O)O)CCC(=O)O
inactive: A549 > 100 µM | ACHN > 100 µM | CAKI-1 > 100 µM | DMS-114 > 100 µM | HCC 2998 > 100 µM | HCT-116 > 100 µM | LOX IMVI > 100 µM | Malme-3M > 100 µM | NCI-H522 > 100 µM | SK-OV-3 > 100 µM | SN12C > 100 µM | SW-620 > 100 µM | U-251 > 100 µM

COc1cc2ccc(/C(C)=N/OC(C)=O)cc2cc1OC
inactive: A549 > 100 µM | ACHN 65.3 µM | DMS-114 > 100 µM | HCT-116 > 100 µM | LOX IMVI > 100 µM | Malme-3M > 100 µM | NCI-H522 22.4 µM | SK-OV-3 > 100 µM | SN12C 49.5 µM | SNB-19 > 100 µM | SW-620 > 100 µM | U-251 86.9 µM | UACC-257 > 100 µM

COc1ccc(CN(Cc2ccc(OC)cc2)C(=O)CC2(O)CCc3ccccc3C2)cc1 (stereo not given)
inactive: A549 30.1 µM | ACHN 49.8 µM | BT-549 > 100 µM | CAKI-1 43.2 µM | DU-145 > 100 µM | HCC 2998 68.9 µM | HCT-116 38 µM | LOX IMVI 52.4 µM | MDA-MB-435 34.8 µM | Malme-3M 28.2 µM | NCI-H522 24 µM | NCI/ADR-RES 12.9 µM | SK-OV-3 > 100 µM | SN12C > 100 µM | SNB-19 > 100 µM | SR 16 µM | SW-620 > 100 µM | U-251 63.1 µM | UACC-257 42.8 µM
